The text below walks through data of US8815829B2, “3′-azido purine nucleotide prodrugs for treatment of viral infections” (priority 2008, dated 2014).

Read-outs that look alike come from different tables or passages of the source.

The test system of one assay is WT (LAI) HIV-1. The assay can be described thus: Single cycle assay in P4/R5 cells, WT HIV-1. The format is cell-based. On the procedure: (§1) In a 96-well plate, two- or three-fold serial dilutions of an inhibitor were added to P4/R5 cells in triplicate. […] At 48 h post-infection, a cell lysis buffer and luminescent substrate (Gal-Screen; Tropix/Applied Biosystems) was added to each well, and relative light unit values were determined using a luminometer (ThermoLabSystems, Waltham, Mass.).
(§2) Virus stocks were prepared as described above. Drug susceptibility assays were performed using the single- and multiple-replication-cycle assays also described above.

Assay [1] relates to HIV-1 AZT2 (D67N/K70R/T215F/K219Q). The assay can be described thus: microbe, parasite or virus in culture. Conditions: for EC50: Human immunodeficiency virus 1, P4/R5 cells, mean ± standard deviation. Type of assay: cell-based. On the procedure:
as §1, §2

The subject of assay [2] is HIV-1 AZT7 (M41L/D67N/K70R/T215F/K219Q). The experiment in a line: microbe, parasite or virus in culture. Type of assay: cell-based. Conditions: for EC50: Human immunodeficiency virus 1, P4/R5 cells, mean ± standard deviation. On the procedure:
as §1, §2

The subject of the next assay is HIV-1 L74V. The experiment in a line: microbe, parasite or virus in culture. The format is cell-based. The note with it: for EC50: Human immunodeficiency virus 1, P4/R5 cells, mean ± standard deviation. On the procedure: as §1, §2
For assay [3], the system named is HIV-1 AZT9 (M41L/D67N/K70R/L210W/T215Y/K219Q). The assay can be described thus: microbe, parasite or virus in culture. Type of assay: cell-based. Conditions: for EC50: Human immunodeficiency virus 1, P4/R5 cells, mean ± standard deviation. How it is done:
as §1, §2

For another assay, the system named is HIV-1 K65R. The experiment in a line: microbe, parasite or virus in culture. The format is cell-based. Conditions: for EC50: Human immunodeficiency virus 1, P4/R5 cells, mean ± standard deviation. How it is done: as §1, §2
Assay [4] relates to HIV-1 AZT3 (M41L/L210W/T215Y). The assay can be described thus: microbe, parasite or virus in culture. The note with it: for EC50: Human immunodeficiency virus 1, P4/R5 cells, mean ± standard deviation. The format is cell-based. How it is done: as §1, §2
In assay [5] the test system is HIV-1 T69SSS (M41L/T69SSS/L210W/T215Y). The assay can be described thus: microbe, parasite or virus in culture. The format is cell-based. Conditions: Human immunodeficiency virus 1, P4/R5, P4/R5 cells, mean ± standard deviation. How it is done:
as §1, §2

The test system of assay [6] is HIV-1 Q151Mc (A62V/V75I/F77L/F116Y/Q151M). The assay can be described thus: microbe, parasite or virus in culture. The note with it: mean ± standard deviation. Type of assay: cell-based. On the procedure:
as §1, §2

For another assay, the system named is HIV-1 M184V. The experiment in a line: microbe, parasite or virus in culture. Type of assay: cell-based. The note with it: for EC50: Human immunodeficiency virus 1, P4/R5 cells, mean ± standard deviation. How it is done:
as §1, §2

The subject of another assay is HIV-1/LAI. The assay can be described thus: Anti-HIV-1 assay in PBM cells. The format is cell-based. On the procedure: Stock solutions (20-40 mM) of the compounds were prepared in sterile DMSO and then diluted to the desired concentration in growth medium. Cells were infected with the prototype HIV-1LAI at a multiplicity of infection of 0.01. Virus obtained from the cell supernatant was quantified on day 6 after infection by a reverse transcriptase assay using (rA)n·(dT)12-18 as template-primer. […] The antiviral EC50 and EC90 were obtained from the concentration-response curve using the median effective method described previously (see Chou T.-C. & Talalay P. Adv. Enzyme Regul. 1984, 22, 27-55; Belen'kii M. S. & Schinazi R. F. Antiviral Res. 1994, 25, 1-11).

Another assay relates to PBM cells. The assay can be described thus: Cytotoxicity assay in PBM cells. The format is cell-based, human.
The next assay concerns HIV-2/pROD10. The experiment in a line: HIV-2 drug susceptibility in PBM cells. Type of assay: cell-based. Conditions: Human immunodeficiency virus 2, PBMC.
A further assay concerns the target T1, Wild-type (WT) HIV-1 RT (Human immunodeficiency virus type 1 group M subtype B, UniProt P03367).
T1 construct: HIV-1 RT (xxLAI background); inferred from vector p6HRT-PROT and the cited metal chelate purification; made in house; host or cells: bacteria (p6HRT-PROT expression vector)
The experiment in a line: Inhibition of HIV-1 RT DNA synthesis by 6-modified-AZG analogs. Conditions: DNA/DNA template/primer, 200 nM WT RT, 40 min. Type of assay: biochemical. On the procedure:
Wild-type (WT) HIV-1 RT was purified as described previously (1, 2). […] The 214 nucleotide (nt) DNA template, corresponding to the HIV-1 PBS region, was prepared as described previously (4). Reactions were initiated by the addition of 200 nM WT RT, incubated for 40 min at 37° C. and then quenched using 20 μL of gel loading buffer (98% deionized formamide containing 1 mg/mL each of bromophenol blue and xylene cyanol). […] Gels were analyzed using phosphorimaging with a GS525 Molecular Imager and Quantity One Software (Biorad Laboratories, Inc., Hercules, Calif.).

The next assay concerns 151M complex RT. The experiment in a line: Studies with purified RT: inhibition of 151M complex RT. Type of assay: biochemical, HIV-1.
The subject of the next assay is Vero cells. The experiment in a line: Cytotoxicity assay in Vero cells. The format is cell-based. The note with it: read-out: Vero IC50; Tables 2-4.
A further assay deals with NRTI-resistant HIV-1. The assay can be described thus: Cross-resistance against a broad panel of NRTI-resistant HIV-1. Type of assay: cell-based.
The test system of a further assay is CEM cells. The experiment in a line: Cytotoxicity assay in CEM cells. The note with it: Tables 2-4; read-out: CEM IC50. The format is cell-based, human.
Setting [7] is: Human immunodeficiency virus 1, P4/R5, read-out: EC50 WT (LAI), P4/R5 cells, mean ± standard deviation.
Setting [8] is: Human immunodeficiency virus 1, P4/R5, P4/R5 cells.

For orientation: IC50 means the point on the concentration scale where inhibition reaches its midpoint.

As to `Cc1cn([C@H]2C[C@H](N=[N+]=[N-])[C@@H](CO)O2)c(=O)[nH]c1=O` [AZT, 3′-azido-3′-deoxythymidine, reference compound], the EC50 in the assay on WT (LAI) HIV-1 (setting [7]) was 126 ± 40 nM; in assay [1] it was 11100 ± 4300 nM; in assay [2] it was over 90000 nM; in the assay on HIV-1 L74V, 156 ± 30 nM; in assay [3], over 90000 nM; with HIV-1 K65R, 163 ± 60 nM. The EC50 in [4] was 2850 ± 880 nM; in assay [5], over 90000 nM; in assay [6] (setting [8]), over 90000 nM; with HIV-1 M184V, 95 ± 40 nM; in the assay on HIV-2/pROD10, 7.6 nM. Besides, the EC90 in the assay on HIV-1/LAI (Human immunodeficiency virus 1, PBMC, PBM cells, read-out: HIV-1/LAI (PBM) EC90) is 20 nM; in the assay with HIV-2/pROD10, 64 nM. The IC50 with PBM cells (Homo sapiens, PBMC, Table 5, read-out: Toxicity IC50 PBM) is over 100000 nM.

On to `[N-]=[N+]=N[C@H]1C[C@H](n2cnc3c(N)nc(N)nc32)O[C@@H]1COP(=O)(O)OP(=O)(O)OP(=O)(O)O` [RS-667-TP], for which the “potency of inhibition of HIV-1 RT DNA synthesis (rank order)” value at Wild-type (WT) HIV-1 RT is reported as “most potent analog”. Besides, the “potency against 151M complex RT” value with 151M complex RT is listed as “less potent than AZG-TP”.

Consider `CCOC(=O)[C@H](C)NP(=O)(OC[C@H]1O[C@@H](n2cnc3c(N)nc(N)nc32)CC1N=[N+]=[N-])Oc1ccccc1` (stereo partly drawn) [RS-788], for which the “fold more potent against WT HIV-1 compared to either RS-667 or RFS-457” value in the assay on WT (LAI) HIV-1 is about 10 fold. The EC50 with WT (LAI) HIV-1 (setting [7]) turned out to be 120 nM; in the assay on WT (LAI) HIV-1 (read-out: EC50 WT (LAI), P4/R5 cells, mean ± standard deviation), 118 ± 60 nM; in [1], 274 ± 70 nM; in assay [2], 270 ± 50 nM; with HIV-1 L74V, 73 ± 20 nM; in assay [3], 253 ± 90 nM. Besides, the EC50 with HIV-1 K65R worked out at 106 ± 70 nM; in [4], 189 ± 20 nM; in assay [5] it was 440 nM; in assay [6] (setting [8]), 280 nM; in assay [6] (P4/R5 cells) it was 277 ± 70 nM; in the assay with HIV-1 M184V it was 48 ± 30 nM. In addition, in the assay on HIV-1/LAI (Tables 2-4, n = 3 for the MP prodrugs, read-out: HIV EC50), the EC50 was 9 nM. The IC50 in the assay with Vero cells is over 100000 nM; with CEM cells, 30400 nM; with PBM cells (Tables 2-4, read-out: PBM IC50), 38300 nM. Besides, in the assay on NRTI-resistant HIV-1, the “cross-resistance profile compared to AZD, AZG or AZT” value is reported as “superior cross-resistance profile”. For the same compound, the “Fold-change versus WT, AZT2” value in assay [1] (EC50 mutant / EC50 WT) was “(2.3) fold”. Moreover, the “Fold-change versus WT, AZT7” value in assay [2] (EC50 mutant / EC50 WT) is “(2.3) fold”. Moreover, the “Fold-change versus WT, L74V” value in the assay with HIV-1 L74V (EC50 mutant / EC50 WT) is reported as “(0.6) fold”. The “Fold-change versus WT, AZT9” value in [3] (EC50 mutant / EC50 WT) is on record as “(2.1) fold”. In addition, the “Fold-change versus WT, K65R” value with HIV-1 K65R (EC50 mutant / EC50 WT) is on record as “(0.9) fold”. Also, the “Fold-change versus WT, AZT3” value in [4] (EC50 mutant / EC50 WT) is recorded as “(1.6) fold”. In the assay with HIV-1 M184V (EC50 mutant / EC50 WT), the “Fold-change versus WT, M184V” value is listed as “(0.4) fold”. Moreover, the EC90 with HIV-1/LAI (Tables 2-4, n = 3 for the MP prodrugs, read-out: HIV EC90) came out at 110 nM.
